Laboratory results reported in PMC9410094 (Marine Drugs, 2022).
≈ marks a conversion by molar mass, not a printed value. Positions of bridges follow the written chain, without caps; N, C: chain ends. Residues, ends and D or L forms follow the SMILES beside them.

Columns and labels:
Gram-positive bacteria = type: cell-based; conditions: 24 h
Procedure: (§1) The antimicrobial activity of the peptides was determined via the method of two-fold serial dilutions in sterile 96-well flat-bottom polystyrene microplates (Eppendorf #0030730011) in Mueller–Hinton broth (MHB, Sigma, Kawasaki, Kanagawa, Japan) supplemented with 0.9% NaCl. Bacterial cultures were grown in MHB at 37 °C until the culture reached an optical density OD600 of 1.0 and diluted with the broth so that to reach a final cell concentration of 10^6 CFU/mL. Then 50 μL of the test culture were added to 50 μL of aqueous solutions of the peptides, previously diluted in 0.1% sterilized bovine serum albumin (BSA) to reduce non-specific binding of the peptides to the surface of the plates. Next, the plate was incubated for 24 h at 37 °C and 950 rpm on the plate thermoshaker (Biosan). The values of the minimum inhibitory concentrations (MIC) were determined as the minimum concentration of the peptide, at which there is no culture growth. The results were expressed as the median values of three independent experiments performed in triplicate.

[1] = RP-HPLC retention time as measure of hydrophobicity; type: physicochemical; conditions: chromatographic, semipreparative RP-HPLC, C18 column, linear gradient 5 to 80% (v/v) acetonitrile in water with 0.1% TFA within 50 minutes; used as measure of hydrophobicity
Procedure: Table S1. Characteristics of the recombinant AMPs.
1 Mean Kyte–Doolittle hydrophobicity index (GRAVY) was calculated using the Expasy ProtParam tool. The maximum and minimum values of this index are +4.5 and -4.5 for poly-Ile and poly-Arg sequences, respectively. 2 Retention times were measured using semipreparative reversed-phase high-performance liquid chromatography (RP - HPLC) on a C18 column with a linear gradient from 5 to 80% ( v/v) acetonitrile in water containing 0.1% trifluoroacetic […]
acid (TFA) within 50 minutes. […]

human red blood cells = type: cell-based
Procedure: Figure 4 (A) Hemolytic effect on human red blood cells after 2 h incubation (hemoglobin release assay). (B) Cytotoxicity toward transformed human embryonic kidney cells after 20 h incubation (MTT-assay). The positive control used was 0.1% Triton X-100 and sterile PBS as a negative control. Melittin was used as an additional positive control. The data are presented as the mean ± SD of three independent experiments.
The hemolytic activity of compounds was performed using human red blood cells (hRBS) of healthy donor. Fresh blood was centrifuged to separate the erythrocyte fraction for 15 min at 500 g and washed three times with cold phosphate-buffered saline (PBS) (pH 7.4), after which an 8% (v/v) suspension of erythrocytes in PBS was prepared. Then, 50 µL of erythrocyte suspension was added to the test peptides, previously were dissolved in 50 µL of 0.1% BSA. The plate was incubated for 1.5 h at 37 °C and 950 rpm on the plate thermoshaker. After incubation, the plates were centrifuged for 15 min at 1000 g to settle intact erythrocytes. Next, aliquots of the supernatant were transferred to another plate to measure the amount of hemoglobin release by the absorbance of the solution at 405 nm. As “zero lysis” we used the supernatant obtained after centrifugation of erythrocytes incubated in a PBS solution without the addition of a peptide. As “100% lysis”, we used the supernatant obtained after centrifugation of erythrocytes incubated in a 0.1% Triton X-100, causing their complete lysis. The assays were conducted three times. The quantitative data were presented as an average means with standard deviations. Hemolysis(%)=OD405(compound)−OD405(zerolysis)/OD405(100%lysis)−OD405(zerolysis)×100%

Gram-negative bacteria = assay: Geometric mean of MICs, Gram-negative panel; type: cell-based; conditions: geometric mean (GM) of MICs against the 14 Gram-negative strains of Figure 2
Procedure: as §1

## CC[C@H](C)[C@@H]1NC(=O)[C@H](CCCNC(=N)N)NC(=O)[C@H](C(C)C)NC(=O)CNC(=O)[C@H](CC(N)=O)NC(=O)[C@H](CCCNC(=N)N)NC(=O)[C@H](CC(C)C)NC(=O)[C@H](C)NC(=O)[C@@H]2CSSC[C@H](NC1=O)C(=O)N[C@@H](Cc1ccc(O)cc1)C(=O)N[C@@H](CCCNC(=N)N)C(=O)N[C@@H](CCCNC(=N)N)C(=O)N[C@H](C(=O)N[C@@H](CC(N)=O)C(=O)O)CSSC[C@H](NC(=O)[C@H](Cc1ccc(O)cc1)NC(=O)CN)C(=O)N[C@@H](Cc1ccccc1)C(=O)N[C@@H]([C@@H](C)O)C(=O)N[C@@H](C)C(=O)N2 [Ap1] (H-GYCFTACALRNGVRICYRRCN-OH; disulfide 3-20, 7-16)
Gram-positive bacteria
  Minimum inhibitory concentration (MIC): Gram-positive Geometric mean: 10.08 µM (≈ 24.6 µg/mL)
[1]
  RP-HPLC Retention Time: 26.05 min

## CC[C@H](C)[C@@H]1NC(=O)[C@H](CCCNC(=N)N)NC(=O)[C@H](C(C)C)NC(=O)CNC(=O)[C@H](CC(N)=O)NC(=O)[C@H](CCCNC(=N)N)NC(=O)[C@H](CC(C)C)NC(=O)[C@H](CCCNC(=N)N)NC(=O)[C@@H]2CSSC[C@H](NC1=O)C(=O)N[C@@H](Cc1ccc(O)cc1)C(=O)N[C@@H](CCCNC(=N)N)C(=O)N[C@@H](CCCNC(=N)N)C(=O)N[C@H](C(=O)N[C@@H](CC(N)=O)C(=O)O)CSSC[C@H](NC(=O)[C@H](Cc1ccc(O)cc1)NC(=O)CN)C(=O)N[C@@H](Cc1ccccc1)C(=O)N[C@@H]([C@@H](C)O)C(=O)N[C@@H](C)C(=O)N2 [Ap2] (H-GYCFTACRLRNGVRICYRRCN-OH; disulfide 3-20, 7-16)
Gram-positive bacteria
  Minimum inhibitory concentration (MIC): Gram-positive Geometric mean: 12.7 µM (≈ 32 µg/mL)
[1]
  RP-HPLC Retention Time: 24.29 min

## CC[C@H](C)[C@@H]1NC(=O)[C@H](CCCNC(=N)N)NC(=O)[C@H](C(C)C)NC(=O)CNC(=O)[C@H](CC(N)=O)NC(=O)[C@H](CCCNC(=N)N)NC(=O)[C@H](C)NC(=O)[C@H](Cc2ccc(O)cc2)NC(=O)[C@@H]2CSSC[C@H](NC1=O)C(=O)N[C@@H](Cc1ccc(O)cc1)C(=O)N[C@@H](CCCNC(=N)N)C(=O)N[C@@H](CCCNC(=N)N)C(=O)N[C@H](C(=O)N[C@@H](CC(N)=O)C(=O)O)CSSC[C@H](NC(=O)[C@H](Cc1ccc(O)cc1)NC(=O)CN)C(=O)N[C@@H](Cc1ccccc1)C(=O)N[C@@H]([C@@H](C)O)C(=O)N[C@@H](C)C(=O)N2 [Ap3] (H-GYCFTACYARNGVRICYRRCN-OH; disulfide 3-20, 7-16)
Gram-positive bacteria
  Minimum inhibitory concentration (MIC): Gram-positive Geometric mean: 1 µM (≈ 2.49 µg/mL)
Human red blood cells
  Hemolytic activity (in words): ability to lyse hRBCs is stronger
[1]
  RP-HPLC Retention Time: 25.47 min

## CC[C@H](C)[C@@H]1NC(=O)[C@H](CCCNC(=N)N)NC(=O)[C@H](C)NC(=O)CNC(=O)[C@H](CC(N)=O)NC(=O)[C@H](CCCNC(=N)N)NC(=O)[C@H](CC(C)C)NC(=O)[C@H](Cc2ccc(O)cc2)NC(=O)[C@@H]2CSSC[C@H](NC1=O)C(=O)N[C@@H](Cc1ccc(O)cc1)C(=O)N[C@@H](CCCNC(=N)N)C(=O)N[C@@H](CCCNC(=N)N)C(=O)N[C@H](C(=O)N[C@@H](CC(N)=O)C(=O)O)CSSC[C@H](NC(=O)[C@H](Cc1ccc(O)cc1)NC(=O)CN)C(=O)N[C@@H](Cc1ccccc1)C(=O)N[C@@H]([C@@H](C)O)C(=O)N[C@@H](C)C(=O)N2 [Ap5] (H-GYCFTACYLRNGARICYRRCN-OH; disulfide 3-20, 7-16)
Gram-positive bacteria
  Minimum inhibitory concentration (MIC): Gram-positive Geometric mean: 5.04 µM (≈ 12.6 µg/mL)
[1]
  RP-HPLC Retention Time: 25.53 min

## CC[C@H](C)[C@@H]1NC(=O)[C@H](CCCNC(=N)N)NC(=O)[C@H](CCCNC(=N)N)NC(=O)CNC(=O)[C@H](CC(N)=O)NC(=O)[C@H](CCCNC(=N)N)NC(=O)[C@H](CC(C)C)NC(=O)[C@H](Cc2ccc(O)cc2)NC(=O)[C@@H]2CSSC[C@H](NC1=O)C(=O)N[C@@H](Cc1ccc(O)cc1)C(=O)N[C@@H](CCCNC(=N)N)C(=O)N[C@@H](CCCNC(=N)N)C(=O)N[C@H](C(=O)N[C@@H](CC(N)=O)C(=O)O)CSSC[C@H](NC(=O)[C@H](Cc1ccc(O)cc1)NC(=O)CN)C(=O)N[C@@H](Cc1ccccc1)C(=O)N[C@@H]([C@@H](C)O)C(=O)N[C@@H](C)C(=O)N2 [Ap6] (H-GYCFTACYLRNGRRICYRRCN-OH; disulfide 3-20, 7-16)
Gram-positive bacteria
  Minimum inhibitory concentration (MIC): Gram-positive Geometric mean: 6.35 µM (≈ 16.4 µg/mL)
[1]
  RP-HPLC Retention Time: 24.69 min

## CC(C)C[C@@H]1NC(=O)[C@H](Cc2ccc(O)cc2)NC(=O)[C@@H]2CSSC[C@H](NC(=O)[C@H](C)NC(=O)[C@H](CCCNC(=N)N)NC(=O)[C@H](C(C)C)NC(=O)CNC(=O)[C@H](CC(N)=O)NC(=O)[C@H](CCCNC(=N)N)NC1=O)C(=O)N[C@@H](Cc1ccc(O)cc1)C(=O)N[C@@H](CCCNC(=N)N)C(=O)N[C@@H](CCCNC(=N)N)C(=O)N[C@H](C(=O)N[C@@H](CC(N)=O)C(=O)O)CSSC[C@H](NC(=O)[C@H](Cc1ccc(O)cc1)NC(=O)CN)C(=O)N[C@@H](Cc1ccccc1)C(=O)N[C@@H]([C@@H](C)O)C(=O)N[C@@H](C)C(=O)N2 [Ap7] (H-GYCFTACYLRNGVRACYRRCN-OH; disulfide 3-20, 7-16)
Gram-positive bacteria
  Minimum inhibitory concentration (MIC): Gram-positive Geometric mean: 8 µM (≈ 19.9 µg/mL)
[1]
  RP-HPLC Retention Time: 25.61 min

## CC(C)C[C@@H]1NC(=O)[C@H](Cc2ccc(O)cc2)NC(=O)[C@@H]2CSSC[C@H](NC(=O)[C@H](CCCNC(=N)N)NC(=O)[C@H](CCCNC(=N)N)NC(=O)[C@H](C(C)C)NC(=O)CNC(=O)[C@H](CC(N)=O)NC(=O)[C@H](CCCNC(=N)N)NC1=O)C(=O)N[C@@H](Cc1ccc(O)cc1)C(=O)N[C@@H](CCCNC(=N)N)C(=O)N[C@@H](CCCNC(=N)N)C(=O)N[C@H](C(=O)N[C@@H](CC(N)=O)C(=O)O)CSSC[C@H](NC(=O)[C@H](Cc1ccc(O)cc1)NC(=O)CN)C(=O)N[C@@H](Cc1ccccc1)C(=O)N[C@@H]([C@@H](C)O)C(=O)N[C@@H](C)C(=O)N2 [Ap8] (H-GYCFTACYLRNGVRRCYRRCN-OH; disulfide 3-20, 7-16)
Gram-positive bacteria
  Minimum inhibitory concentration (MIC): Gram-positive Geometric mean: 16 µM (≈ 41.1 µg/mL)
[1]
  RP-HPLC Retention Time: 24.34 min

## CC[C@H](C)[C@@H]1NC(=O)[C@H](CCCNC(=N)N)NC(=O)[C@H](C)NC(=O)CNC(=O)[C@H](CC(N)=O)NC(=O)[C@H](CCCNC(=N)N)NC(=O)[C@H](CCCNC(=N)N)NC(=O)[C@H](Cc2ccc(O)cc2)NC(=O)[C@@H]2CSSC[C@H](NC1=O)C(=O)N[C@@H](Cc1ccc(O)cc1)C(=O)N[C@@H](CCCNC(=N)N)C(=O)N[C@@H](CCCNC(=N)N)C(=O)N[C@H](C(=O)N[C@@H](CC(N)=O)C(=O)O)CSSC[C@H](NC(=O)[C@H](Cc1ccc(O)cc1)NC(=O)CN)C(=O)N[C@@H](Cc1ccccc1)C(=O)N[C@@H]([C@@H](C)O)C(=O)N[C@@H](C)C(=O)N2 [Ap10] (H-GYCFTACYRRNGARICYRRCN-OH; disulfide 3-20, 7-16)
Gram-negative bacteria
  Minimum inhibitory concentration (MIC): Gram-negative Geometric mean: 0.31 µM (≈ 0.788 µg/mL)
Gram-positive bacteria
  Minimum inhibitory concentration (MIC): Gram-positive Geometric mean: 2.52 µM (≈ 6.41 µg/mL)
[1]
  RP-HPLC Retention Time: 24.41 min
